Assay results taken from patent US8415469B2, “Compounds and methods for kinase modulation, and indications therefor” (Plexxikon Inc., priority 2005, dated 2013).

What was measured:
Assay type in all cases: biochemical
[1] = molecular target: T1, c-Raf-1 (Homo sapiens, UniProt P04049); test: AlphaScreen kinase assay, c-Raf-1; conditions: read-out: IC50, activity toward kinase c-Raf-1
T1 construct: purchased Upstate Biotechnology

[2] = molecular target: T2, Jnk3 (Homo sapiens, UniProt P53779); test: AlphaScreen kinase assay, Jnk3; conditions: read-out: IC50, activity toward kinase Jnk3
T2 construct: purchased Upstate Biotechnology

[3] = molecular target: T3, Btk (Homo sapiens, UniProt Q06187); test: Z'-Lyte FRET kinase assay (Invitrogen), Btk; conditions: read-out: IC50, activity toward kinase Btk
T3 construct: purchased Invitrogen (assay run by Invitrogen)
T3 sequence (Q06187 whole entry): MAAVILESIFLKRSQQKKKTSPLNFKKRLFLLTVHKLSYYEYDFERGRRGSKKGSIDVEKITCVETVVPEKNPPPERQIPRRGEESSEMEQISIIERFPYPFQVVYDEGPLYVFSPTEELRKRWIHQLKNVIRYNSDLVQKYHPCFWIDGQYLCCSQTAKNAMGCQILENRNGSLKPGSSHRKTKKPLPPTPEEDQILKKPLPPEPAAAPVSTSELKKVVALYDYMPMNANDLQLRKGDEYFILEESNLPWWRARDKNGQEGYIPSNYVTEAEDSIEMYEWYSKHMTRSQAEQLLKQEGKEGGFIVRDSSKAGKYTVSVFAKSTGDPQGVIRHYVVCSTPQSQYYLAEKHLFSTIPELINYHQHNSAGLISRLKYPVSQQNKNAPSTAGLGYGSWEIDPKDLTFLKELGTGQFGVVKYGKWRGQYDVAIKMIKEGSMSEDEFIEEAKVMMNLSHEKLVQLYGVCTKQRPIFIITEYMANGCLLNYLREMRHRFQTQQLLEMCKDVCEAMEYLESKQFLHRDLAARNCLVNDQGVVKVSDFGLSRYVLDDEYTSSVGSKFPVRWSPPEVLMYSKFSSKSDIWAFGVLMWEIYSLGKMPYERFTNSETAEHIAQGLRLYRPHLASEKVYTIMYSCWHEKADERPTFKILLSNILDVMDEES

[4] = molecular target: T4, B-Raf V600E (Homo sapiens, UniProt P15056, V600E); test: AlphaScreen kinase assay, B-Raf V600E; conditions: read-out: IC50, activity toward kinase B-Raf V600E
T4 construct: P4254. pFastBacBD-CDC37 BRAF D437-K722-X, V600E; His6 with pFastBac HT leader (TEV site) (N); made in house; host or cells: Sf9 (baculovirus; chaperone CDC37 co-expressed)
T4 sequence (P15056 with tags, fused parts or gaps V600E): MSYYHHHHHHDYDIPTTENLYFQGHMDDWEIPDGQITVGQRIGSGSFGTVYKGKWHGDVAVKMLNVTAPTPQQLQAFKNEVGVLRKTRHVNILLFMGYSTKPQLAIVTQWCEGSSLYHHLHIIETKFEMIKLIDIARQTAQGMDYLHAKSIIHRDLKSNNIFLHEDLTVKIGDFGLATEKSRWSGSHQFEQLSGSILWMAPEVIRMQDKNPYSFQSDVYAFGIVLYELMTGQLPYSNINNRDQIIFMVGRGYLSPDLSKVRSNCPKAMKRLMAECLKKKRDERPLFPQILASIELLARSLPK

[5] = molecular target: T5, TEC (Homo sapiens, UniProt P42680); test: AlphaScreen kinase assay, TEC; conditions: read-out: IC50, activity toward kinase TEC
T5 sequence (P42680 1-631): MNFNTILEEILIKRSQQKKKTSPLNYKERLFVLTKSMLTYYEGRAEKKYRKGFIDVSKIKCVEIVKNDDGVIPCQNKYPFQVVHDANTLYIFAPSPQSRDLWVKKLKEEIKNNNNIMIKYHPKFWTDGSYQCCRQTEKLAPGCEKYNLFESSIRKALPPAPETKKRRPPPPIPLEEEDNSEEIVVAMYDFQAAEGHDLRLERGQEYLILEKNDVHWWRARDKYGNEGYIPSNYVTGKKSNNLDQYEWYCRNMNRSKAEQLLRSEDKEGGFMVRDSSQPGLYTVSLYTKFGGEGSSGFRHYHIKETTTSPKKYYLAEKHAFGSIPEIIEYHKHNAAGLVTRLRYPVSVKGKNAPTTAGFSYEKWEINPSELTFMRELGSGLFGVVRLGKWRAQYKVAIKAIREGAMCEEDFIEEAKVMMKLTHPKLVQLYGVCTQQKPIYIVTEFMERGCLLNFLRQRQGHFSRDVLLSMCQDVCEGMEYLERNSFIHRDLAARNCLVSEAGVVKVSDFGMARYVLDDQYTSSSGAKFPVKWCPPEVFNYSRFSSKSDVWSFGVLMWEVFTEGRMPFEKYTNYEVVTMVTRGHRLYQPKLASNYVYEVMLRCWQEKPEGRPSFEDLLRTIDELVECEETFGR
From the text: AlphaScreen assay was used to screen additional kinases. The assay is similarly dependent on the phosphorylation of a peptide substrate. In this assay, an antibody that recognizes phosphorylated substrate is bound to an acceptor bead. The peptide substrate is attached to biotin, which binds to a donor head that contains streptavidin. Thus phosphorylated substrate is bound by antibody and streptavidin, bringing the donor and acceptor heads into close proximity when kinase is not inhibited. The donor produces singlet oxygen which results in emission from the acceptor when they are in close proximity. Conversely, when kinase is inhibited, the donor and acceptor beads are not associated and the emission from the acceptor is reduced.
AlphaScreen assays were done using compounds dissolved in DMSO to a concentration of 20 mM. The compounds were diluted accordingly to the desired final concentrations in each sample well, using 1:3 serial dilution for a total of 8 concentration points.

[6] = molecular target: T6, FGFR1 (Homo sapiens, UniProt P11362, C488A/C584S); test: AlphaScreen kinase assay, FGFR1; conditions: read-out: IC50, activity toward kinase FGFR
T6 construct: P1351.pET N6 BI-PTP FGFR A458-E765-X C488A, C584S; made in house; host or cells: E. coli (PTP1B co-expressed)
T6 sequence (P11362 458-765 C488A/C584S): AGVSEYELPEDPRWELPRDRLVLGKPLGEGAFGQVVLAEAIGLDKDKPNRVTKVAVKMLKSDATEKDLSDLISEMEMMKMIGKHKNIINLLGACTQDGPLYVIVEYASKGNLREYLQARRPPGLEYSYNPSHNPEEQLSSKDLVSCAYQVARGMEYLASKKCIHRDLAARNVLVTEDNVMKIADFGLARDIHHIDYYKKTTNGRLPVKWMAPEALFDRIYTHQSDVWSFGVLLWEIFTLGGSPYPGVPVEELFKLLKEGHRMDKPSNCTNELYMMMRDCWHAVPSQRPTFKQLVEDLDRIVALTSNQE

[7] = molecular target: T7, B-Raf (Homo sapiens, UniProt P15056); test: AlphaScreen kinase assay, B-Raf; conditions: read-out: IC50, activity toward kinase B-Raf
T7 construct: purchased Upstate Biotechnology
T7 sequence (P15056 whole entry): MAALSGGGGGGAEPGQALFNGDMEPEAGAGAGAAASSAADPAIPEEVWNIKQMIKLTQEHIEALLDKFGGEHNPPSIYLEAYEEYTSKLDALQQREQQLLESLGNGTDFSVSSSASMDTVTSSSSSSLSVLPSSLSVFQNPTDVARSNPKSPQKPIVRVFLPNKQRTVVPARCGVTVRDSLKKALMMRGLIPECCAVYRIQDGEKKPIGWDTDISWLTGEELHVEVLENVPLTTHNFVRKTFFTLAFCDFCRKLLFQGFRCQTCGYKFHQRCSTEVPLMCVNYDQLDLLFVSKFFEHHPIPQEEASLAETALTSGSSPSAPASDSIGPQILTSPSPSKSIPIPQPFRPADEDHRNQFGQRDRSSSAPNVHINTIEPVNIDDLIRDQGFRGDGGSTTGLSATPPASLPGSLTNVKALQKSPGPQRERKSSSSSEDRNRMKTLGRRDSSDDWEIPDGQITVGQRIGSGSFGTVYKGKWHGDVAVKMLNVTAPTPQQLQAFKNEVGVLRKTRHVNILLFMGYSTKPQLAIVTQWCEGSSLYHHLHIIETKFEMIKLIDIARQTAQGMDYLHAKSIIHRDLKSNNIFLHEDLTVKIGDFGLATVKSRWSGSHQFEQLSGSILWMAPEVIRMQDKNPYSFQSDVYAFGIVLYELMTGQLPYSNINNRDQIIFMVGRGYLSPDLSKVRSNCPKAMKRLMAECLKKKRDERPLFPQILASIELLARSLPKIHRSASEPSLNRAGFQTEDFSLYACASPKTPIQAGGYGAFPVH

[8] = molecular target: T8, Jnk1 (Homo sapiens, UniProt P45983); test: AlphaScreen kinase assay, Jnk1; conditions: read-out: IC50, activity toward kinase Jnk1
T8 construct: purchased Upstate Biotechnology
T8 sequence (P45983 whole entry): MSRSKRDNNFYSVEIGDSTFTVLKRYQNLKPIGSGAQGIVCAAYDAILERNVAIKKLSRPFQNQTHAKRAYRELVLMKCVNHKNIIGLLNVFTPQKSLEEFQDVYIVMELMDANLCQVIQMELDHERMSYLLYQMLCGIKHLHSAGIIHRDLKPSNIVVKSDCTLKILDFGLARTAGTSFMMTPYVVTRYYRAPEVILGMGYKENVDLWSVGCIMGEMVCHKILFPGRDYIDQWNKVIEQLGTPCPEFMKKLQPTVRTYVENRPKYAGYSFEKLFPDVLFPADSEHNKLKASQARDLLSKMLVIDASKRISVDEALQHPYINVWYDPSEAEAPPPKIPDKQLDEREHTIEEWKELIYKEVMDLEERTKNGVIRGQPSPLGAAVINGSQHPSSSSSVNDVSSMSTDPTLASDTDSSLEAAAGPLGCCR

[9] = molecular target: T9, Pyk2 (Homo sapiens, UniProt Q14289); test: AlphaScreen kinase assay, Pyk2; conditions: read-out: IC50, activity toward kinase Pyk2
T9 construct: purchased Upstate Biotechnology
T9 sequence (Q14289 whole entry): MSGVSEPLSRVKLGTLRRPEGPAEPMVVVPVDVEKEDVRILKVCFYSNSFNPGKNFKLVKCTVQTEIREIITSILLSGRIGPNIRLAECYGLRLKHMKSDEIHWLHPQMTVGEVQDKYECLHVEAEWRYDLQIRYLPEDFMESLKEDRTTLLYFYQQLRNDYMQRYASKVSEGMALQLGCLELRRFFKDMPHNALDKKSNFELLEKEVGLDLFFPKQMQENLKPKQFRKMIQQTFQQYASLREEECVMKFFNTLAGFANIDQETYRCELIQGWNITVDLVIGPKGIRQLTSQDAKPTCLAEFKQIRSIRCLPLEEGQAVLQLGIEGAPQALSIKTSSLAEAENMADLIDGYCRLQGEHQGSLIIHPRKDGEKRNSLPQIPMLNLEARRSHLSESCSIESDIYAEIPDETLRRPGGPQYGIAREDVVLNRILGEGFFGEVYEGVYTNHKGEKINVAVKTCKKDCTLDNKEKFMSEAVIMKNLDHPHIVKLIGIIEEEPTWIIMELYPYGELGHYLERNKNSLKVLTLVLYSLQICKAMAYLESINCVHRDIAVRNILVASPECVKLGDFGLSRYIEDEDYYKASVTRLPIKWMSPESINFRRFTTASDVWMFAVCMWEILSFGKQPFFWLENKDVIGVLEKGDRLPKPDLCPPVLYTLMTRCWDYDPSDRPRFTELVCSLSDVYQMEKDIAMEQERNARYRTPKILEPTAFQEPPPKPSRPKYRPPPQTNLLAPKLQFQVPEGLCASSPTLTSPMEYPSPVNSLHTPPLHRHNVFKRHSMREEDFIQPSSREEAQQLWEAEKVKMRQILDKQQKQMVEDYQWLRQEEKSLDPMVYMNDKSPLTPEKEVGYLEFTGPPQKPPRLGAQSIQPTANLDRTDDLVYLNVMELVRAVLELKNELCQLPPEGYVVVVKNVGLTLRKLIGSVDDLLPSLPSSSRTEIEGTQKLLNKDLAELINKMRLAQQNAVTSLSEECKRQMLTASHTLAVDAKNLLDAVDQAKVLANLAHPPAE

[10] = molecular target: T10, Met (Homo sapiens, UniProt P08581); test: AlphaScreen kinase assay, Met; conditions: read-out: IC50, activity toward kinase Met
T10 construct: P1818.pETN6 BI-PTP MET G1056-G1364-X WT; His6 (N); made in house; host or cells: E. coli (PTP1B co-expressed)
Summary of the method: (§1)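 Stock 20 mM compound in DMSO, diluted 1:3 serially to 8 final concentrations. Kinase phosphorylates biotinylated peptide; donor (streptavidin) and acceptor (anti-phospho antibody) beads then associate. Reduced acceptor emission indicates inhibition.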

[11] = molecular target: T11, Ret (Homo sapiens, UniProt P07949); test: AlphaScreen kinase assay, Ret; conditions: read-out: IC50, activity toward kinase Ret
T11 construct: P1378.pET-SF BI-PTP RET H661-R1012 HIS; made in house
T11 sequence (P07949 with tags, fused parts or gaps): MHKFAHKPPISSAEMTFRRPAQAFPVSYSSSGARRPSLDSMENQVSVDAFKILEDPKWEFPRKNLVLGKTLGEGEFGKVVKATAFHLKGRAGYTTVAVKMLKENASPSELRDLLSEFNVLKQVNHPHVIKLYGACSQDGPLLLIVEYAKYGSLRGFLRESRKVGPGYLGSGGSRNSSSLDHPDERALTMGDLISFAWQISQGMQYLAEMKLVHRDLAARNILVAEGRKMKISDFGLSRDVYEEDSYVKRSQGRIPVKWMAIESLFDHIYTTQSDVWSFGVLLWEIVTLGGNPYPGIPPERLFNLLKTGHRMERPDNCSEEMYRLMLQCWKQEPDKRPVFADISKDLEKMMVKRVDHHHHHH
Experimental: AlphaScreen assays were done using compounds dissolved in DMSO to a concentration of 20 mM. The compounds were diluted accordingly to the desired final concentrations in each sample well, using 1:3 serial dilution for a total of 8 concentration points. Plates were prepared such that each kinase reaction is 20 μl in 1× kinase buffer, 5% DMSO and 10 μM ATP. After incubation of the kinase reaction for 1 hour at room temperature, 5 μl of donor beads in stop buffer (50 mM EDTA in 1× kinase buffer) was added, the sample was mixed and incubated for 20 minutes at room temperature before adding 5 μl of acceptor beads in stop buffer. The samples were incubated for 60 minutes at room temperature and the signal per well was read on AlphaQuest reader.

[12] = molecular target: T12, Jnk2 (Homo sapiens, UniProt P45984); test: AlphaScreen kinase assay, Jnk2; conditions: read-out: IC50, activity toward kinase Jnk2
T12 construct: purchased Roche Protein Expression Group (Indianapolis, IN)
T12 sequence (P45984 whole entry): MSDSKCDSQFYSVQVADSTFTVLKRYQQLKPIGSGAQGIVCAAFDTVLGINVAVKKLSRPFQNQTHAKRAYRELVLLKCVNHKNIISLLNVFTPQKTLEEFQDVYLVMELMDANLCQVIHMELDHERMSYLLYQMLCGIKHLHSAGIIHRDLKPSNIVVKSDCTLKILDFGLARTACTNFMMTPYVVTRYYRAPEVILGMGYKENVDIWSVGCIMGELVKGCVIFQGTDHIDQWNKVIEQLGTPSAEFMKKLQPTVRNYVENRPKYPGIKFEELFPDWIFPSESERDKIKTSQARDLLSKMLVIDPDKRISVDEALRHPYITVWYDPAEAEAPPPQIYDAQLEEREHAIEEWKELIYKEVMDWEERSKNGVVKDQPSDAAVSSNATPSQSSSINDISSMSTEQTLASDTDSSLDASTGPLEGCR
Summary of the method: as §1

[13] = molecular target: T13, Fak (Homo sapiens, UniProt Q05397); test: AlphaScreen kinase assay, Fak; conditions: read-out: IC50, activity toward kinase Fak
T13 construct: P1358.pFastBacHtb FAK S411-Q686-X; His6 with pFastBacHTb leader (TEV site) (N); made in house; host or cells: Sf9 (baculovirus)

[14] = molecular target: T14, Fms (Homo sapiens, UniProt P07333); test: AlphaScreen kinase assay, Fms; conditions: read-out: IC50, activity toward kinase Fms
T14 construct: purchased Upstate Biotechnology

[15] = molecular target: T15, Kit (Homo sapiens, UniProt P10721); test: AlphaScreen kinase assay, Kit; conditions: read-out: IC50, activity toward kinase Kit
T15 construct: P1332.N6 BI PTP KIT M552-K948-X COD; His6 (N); made in house; host or cells: E. coli (PTP1B co-expressed)
T15 sequence (P10721 with tags, fused parts or gaps): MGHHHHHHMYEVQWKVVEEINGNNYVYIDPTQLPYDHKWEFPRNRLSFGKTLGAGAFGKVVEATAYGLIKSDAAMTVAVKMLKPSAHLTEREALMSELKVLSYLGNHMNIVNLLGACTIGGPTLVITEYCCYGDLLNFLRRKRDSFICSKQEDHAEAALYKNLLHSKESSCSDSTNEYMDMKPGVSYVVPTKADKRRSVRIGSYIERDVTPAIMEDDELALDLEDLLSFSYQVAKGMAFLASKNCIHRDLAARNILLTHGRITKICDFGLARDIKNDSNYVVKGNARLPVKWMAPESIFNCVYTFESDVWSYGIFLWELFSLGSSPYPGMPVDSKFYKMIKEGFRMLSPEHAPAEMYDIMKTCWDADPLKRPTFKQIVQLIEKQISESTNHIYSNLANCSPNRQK

[16] = molecular target: T16, Src (Homo sapiens, UniProt P12931); test: AlphaScreen kinase assay, Src; conditions: read-out: IC50, activity toward kinase Src
T16 construct: P1144. pET-N6 BI-PTP SRC V86-L536-X; made in house

Measured: IC50

T1 sequence (P04049 whole entry): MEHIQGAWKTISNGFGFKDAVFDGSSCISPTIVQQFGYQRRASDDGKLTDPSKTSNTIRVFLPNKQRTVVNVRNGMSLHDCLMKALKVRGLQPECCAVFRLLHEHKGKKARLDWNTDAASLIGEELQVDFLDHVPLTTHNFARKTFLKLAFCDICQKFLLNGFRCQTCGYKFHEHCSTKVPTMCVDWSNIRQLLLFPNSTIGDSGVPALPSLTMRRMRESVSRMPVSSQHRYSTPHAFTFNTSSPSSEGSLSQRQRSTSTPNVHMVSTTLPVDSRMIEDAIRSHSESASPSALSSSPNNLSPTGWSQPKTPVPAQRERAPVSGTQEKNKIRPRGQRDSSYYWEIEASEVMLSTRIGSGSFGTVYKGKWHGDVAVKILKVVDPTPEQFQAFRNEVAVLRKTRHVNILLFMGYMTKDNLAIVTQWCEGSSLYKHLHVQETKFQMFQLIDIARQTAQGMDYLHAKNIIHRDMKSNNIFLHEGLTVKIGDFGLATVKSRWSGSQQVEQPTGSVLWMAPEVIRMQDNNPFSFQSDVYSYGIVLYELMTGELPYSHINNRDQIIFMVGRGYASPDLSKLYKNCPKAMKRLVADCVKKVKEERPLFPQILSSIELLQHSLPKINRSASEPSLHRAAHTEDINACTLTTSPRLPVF

C=C(C)c1cnc2[nH]cc(C(=O)c3c(F)ccc(NS(=O)(=O)CCC)c3F)c2c1 [Compound P-0991, Propane-1-sulfonic acid [2,4-difluoro-3-(5-isopropenyl-1H-pyrrolo[2,3-b]pyridine-3-carbonyl)-phenyl]-amide]
≤ 10 µM: [1] | [2] | [3] | [4] | [5] | [6] | [7] | [8] | [9]

CS(=O)(=O)Nc1cccc(-c2cnc3[nH]cc(C(=O)c4cc(NS(C)(=O)=O)ccc4F)c3c2)c1 [Compound P-0156, N-{4-Fluoro-3-[5-(3-methanesulfonylamino-phenyl)-1H-pyrrolo[2,3-b]pyridine-3-carbonyl]-phenyl}-methanesulfonamide]
≤ 10 µM: [1] | [3] | [4] | [10] | [5] | [6] | [11] | [12] | [8]

COC(=O)Nc1ccc(F)c(Cc2c[nH]c3ncc(-c4cccnc4)cc23)c1F [Compound P-0257, [2,4-Difluoro-3-(5-pyridin-3-yl-1H-pyrrolo[2,3-b]pyridin-3-ylmethyl)-phenyl]-carbamic acid methyl ester]
not listed: [10] | [12] | [16]
≤ 10 µM: all other assays above

O=C(NCc1ccc(CCc2c[nH]c3ncccc23)cc1)Nc1ccccc1 [Compound P-0429]
≤ 10 µM: [3] | [5]

CCCS(=O)(=O)Nc1ccc(F)c(C(=O)c2c[nH]c3ncc(C(C)C)cc23)c1F [Compound P-0997]
≤ 10 µM: [1] | [3] | [4] | [5] | [6] | [16] | [7] | [8] | [9]

COc1ccc(S(=O)(=O)Nc2ccc(F)c(C(=O)c3c[nH]c4ncc(Cl)cc34)c2F)cc1 [Compound P-0983, N-[3-(5-Chloro-1H-pyrrolo[2,3-b]pyridine-3-carbonyl)-2,4-difluoro-phenyl]-4-methoxy-benzenesulfonamide]
≤ 10 µM: [1] | [4] | [5] | [6] | [7] | [15]

CS(=O)(=O)Nc1ccc(F)c(C(=O)c2c[nH]c3ncc(-c4cccc(S(C)(=O)=O)c4)cc23)c1 [Compound P-0297, N-{4-Fluoro-3-[5-(3-methanesulfonyl-phenyl)-1H-pyrrolo[2,3-b]pyridine-3-carbonyl]-phenyl}-methanesulfonamide]
not listed: [2] | [9] | [10] | [13] | [15] | [16]
≤ 10 µM: all other assays above

CCCS(=O)(=O)Nc1cccc(C(=O)c2c[nH]c3ncc(-c4ccccc4)cc23)c1F [Compound P-0897, Propane-1-sulfonic acid [2-fluoro-3-(5-phenyl-1H-pyrrolo[2,3-b]pyridine-3-carbonyl)-phenyl]-amide]
≤ 10 µM: [1] | [3] | [4] | [5] | [6] | [7] | [8] | [9]
